{"source": "patent US20250230193A1", "about": "“CYCLIC COMPOUND HAVING SELECTIVE KRAS INHIBITORY EFFECT ON HRAS AND NRAS” (CHUGAI SEIYAKU KABUSHIKI KAISHA, priority 2022, published 2025)", "key": {"[1]": {"biological_target": "GDP-bound NRAS wild-type protein (Homo sapiens, UniProt P01111)", "sequence (P01111 whole entry)": "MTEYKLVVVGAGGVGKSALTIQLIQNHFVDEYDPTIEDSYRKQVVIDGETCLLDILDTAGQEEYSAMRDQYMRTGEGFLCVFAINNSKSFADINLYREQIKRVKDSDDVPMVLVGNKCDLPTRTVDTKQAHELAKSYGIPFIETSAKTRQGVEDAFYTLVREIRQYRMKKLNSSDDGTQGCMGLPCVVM", "experiment": "Binding to NRAS by surface plasmon resonance (SPR), Single Cycle Kinetics"}, "[2]": {"biological_target": "GDP-bound HRAS wild-type protein (Homo sapiens, UniProt P01112)", "sequence (P01112 whole entry)": "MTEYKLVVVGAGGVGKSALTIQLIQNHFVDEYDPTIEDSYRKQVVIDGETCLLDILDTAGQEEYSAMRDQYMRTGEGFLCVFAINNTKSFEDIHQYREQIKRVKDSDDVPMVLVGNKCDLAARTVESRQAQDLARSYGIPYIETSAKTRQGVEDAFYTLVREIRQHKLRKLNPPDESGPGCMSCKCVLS", "experiment": "Binding to HRAS by surface plasmon resonance (SPR), Single Cycle Kinetics"}, "[3]": {"conditions": "SPR, GDP-bound wild-type proteins"}}, "note": "*1 amine or outer side, *2 acyl side, *3 side chain or, on linkers, in order; H or OH if unused. Where a SMILES comes first, the peptide text is derived from it. Bridges are numbered along the chain shown (N, C = ends). [ ]: non-standard residue; d: D form. The star is where a group is joined. hPhe(3-Cl-4-CF3) = N[C@@H](CCc1ccc(C(F)(F)F)c(Cl)c1)C(=O)O; NPrPhe(4-CF3) = CCCN[C@@H](Cc1ccc(C(F)(F)F)cc1)C(=O)O; NPrPhe(4-Me) = CCCN[C@@H](Cc1ccc(C)cc1)C(=O)O; NMeGly(cPent) = CN[C@H](C(=O)O)C1CCCC1; NMeD = CN[C@@H](CC(=O)O)C(=O)O; NMeL = CN[C@@H](CC(C)C)C(=O)O; X14 = N#CCN(CC(=O)[*:2])[*:1]; Pip = O=C(O)[C@@H]1CCCCN1; Morpholide = C1CN(*)CCO1; Ac5c = NC1(C(=O)O)CCCC1; Aze = O=C(O)[C@@H]1CCN1; Sar = CNCC(=O)O"}
{"compound": "CC[C@H](C)[C@@H]1NC(=O)[C@H](COC)N(C)C(=O)C[C@@H](C(=O)N(C)C)N(C)C(=O)[C@H](C2CCCCC2)N(C)C(=O)C2(CC(C)(C)C2)NC(=O)[C@@H]2C[C@@H](OC(C)C)CN2C(=O)[C@H](CCc2ccc(Cl)c(Cl)c2)NC(=O)CN(C)C(=O)[C@H](Cc2ccc(C(F)(F)F)cc2)N2CC/C=C\\C[C@@H](C2=O)N(C)C(=O)CN(C)C1=O", "note": "[PP2662]", "values": [{"measurement": "NRAS/KRAS (ratio of KD value with respect to GDP-bound NRAS wild-type protein to KD value with respect to KRAS)", "setting": "[1]; class symbols", "value": "AA (a compound having 20 or more is denoted as AA)"}, {"measurement": "HRAS/KRAS (ratio of KD value with respect to GDP-bound HRAS wild-type protein to KD value with respect to KRAS)", "setting": "[2]; class symbols", "value": "A (a compound having 10 or more and less than 20 is denoted as A)"}]}
{"compound": "CCO[C@@H]1C[C@H]2C(=O)NC3(CCC3)C(=O)N(C)[C@@H](C3CCCC3)C(=O)N(C)[C@H](C(=O)N(C)CC)CC(=O)N(C)[C@@H](CC)C(=O)N[C@@H]([C@@H](C)CC)C(=O)N(C)CC(=O)N(C)[C@H]3C/C=C\\CCN(C3=O)[C@@H](CC3CCC(F)(F)CC3)C(=O)N(C)CC(=O)N[C@@H](CCc3cc(F)c(C(F)(F)F)c(F)c3)C(=O)N2C1", "note": "[PP1553]", "values": [{"measurement": "NRAS/KRAS (ratio of KD value for GDP-bound NRAS wild-type protein to KD value for KRAS)", "setting": "[1]; SPR, KD ratio class", "value": "A (a compound having 10 or more and less than 20 is denoted as A)"}, {"measurement": "HRAS/KRAS (ratio of KD value for GDP-bound HRAS wild-type protein to KD value for KRAS)", "setting": "[2]; SPR, KD ratio class", "value": "A (a compound having 10 or more and less than 20 is denoted as A)"}]}
{"compound": "CCO[C@@H]1C[C@H]2C(=O)N(C)C3(CC(C)(C)C3)C(=O)N(C)[C@@H](C3CCCC3)C(=O)N(C)[C@H](C(=O)N(C)C)CC(=O)N(C)[C@H]3CCC/C=C/c4ccc(cc4)C[C@@H](C(=O)N(C)CC(=O)N[C@@H](CCc4ccc(Cl)c(Cl)c4)C(=O)N2C1)N1CC/C=C\\C[C@@H](C1=O)N(C)C(=O)CN(C1CC1)C(=O)[C@H]([C@@H](C)CC)NC3=O", "note": "[PP3061]", "values": [{"measurement": "NRAS/KRAS (ratio of KD value with respect to GDP-bound NRAS wild-type protein to KD value with respect to KRAS)", "setting": "[1]; [3]", "value": "A (a compound having 10 or more and less than 20 is denoted as A)"}, {"measurement": "HRAS/KRAS (ratio of KD value with respect to GDP-bound HRAS wild-type protein to KD value with respect to KRAS)", "setting": "[2]; [3]", "value": "A (a compound having 10 or more and less than 20 is denoted as A)"}]}
{"compound": "CCC[C@H]1C(=O)N[C@@H]([C@@H](C)CC)C(=O)N(C)CC(=O)N(C)[C@H]2C/C=C\\CCN(C2=O)[C@@H](Cc2ccc(C(F)(F)F)cc2)C(=O)N(C)CC(=O)N[C@@H](CCc2ccc3c(C)cn(C)c3c2)C(=O)N2C[C@H](OCC)C[C@H]2C(=O)NC2(CC(C)(C)C2)C(=O)N(C)[C@@H](C(CC)CC)C(=O)N(C)[C@H](C(=O)N(C)C)CC(=O)N1C", "note": "[PP2908]", "values": [{"measurement": "NRAS/KRAS (ratio of KD value with respect to GDP-bound NRAS wild-type protein to KD value with respect to KRAS)", "setting": "[1]; class symbols", "value": "AA (a compound having 20 or more is denoted as AA)"}, {"measurement": "HRAS/KRAS (ratio of KD value with respect to GDP-bound HRAS wild-type protein to KD value with respect to KRAS)", "setting": "[2]; class symbols", "value": "A (a compound having 10 or more and less than 20 is denoted as A)"}]}
{"compound": "CCO[C@@H]1C[C@H]2C(=O)NC3(CC(C)(C)C3)C(=O)N(C)[C@@H](C(CC)CC)C(=O)N(C)[C@H](C(=O)N(C)C)CC(=O)N(C)[C@@H](C(C)C)C(=O)N[C@@H]([C@@H](C)CC)C(=O)N(C)CC(=O)N(C)[C@H]3C/C=C\\CCN(C3=O)[C@@H](Cc3ccc(C(F)(F)F)cc3)C(=O)N(C)CC(=O)N[C@@H](CCc3ccc(C(F)(F)F)c(Cl)c3)C(=O)N2C1", "note": "[PP2140]", "values": [{"measurement": "NRAS/KRAS (ratio of KD value with respect to NRAS to KD value with respect to KRAS)", "setting": "[1]; SPR, GDP-bound NRAS wild-type vs GDP-bound KRAS wild-type", "value": "AA (a compound having 20 or more is denoted as AA)"}, {"measurement": "HRAS/KRAS (ratio of KD value with respect to HRAS to KD value with respect to KRAS)", "setting": "[2]; SPR, GDP-bound HRAS wild-type vs GDP-bound KRAS wild-type", "value": "A (a compound having 10 or more and less than 20 is denoted as A)"}]}
{"compound": "CCCN1C(=O)[C@@H]2CCN2C(=O)[C@@H]2CCCCN2C(=O)[C@H]([C@@H](C)CC)NC(=O)[C@H](CC(C)C)N(C)C(=O)C[C@@H](C(=O)N2CCOCC2)N(C)C(=O)[C@H](C2CCCC2)N(C)C(=O)C2(CCCC2)NC(=O)[C@@H]2CCCN2C(=O)[C@H](CCc2ccc(C(F)(F)F)c(Cl)c2)NC(=O)CN(C)C(=O)[C@@H]1Cc1ccc(C)cc1", "note": "[PP0070] ([NMeL]I[Pip][Aze][NPrPhe(4-Me)][Sar][hPhe(3-Cl-4-CF3)]P[Ac5c][NMeGly(cPent)][NMeD]-Morpholide; lactam N-11)", "values": [{"measurement": "NRAS/KRAS (ratio of KD for GDP-bound NRAS wild-type to KD for KRAS)", "setting": "[1]; SPR", "value": "C (A compound having a KD ratio of 0.1 or more and less than 3 is denoted as C)"}, {"measurement": "HRAS/KRAS (ratio of KD for GDP-bound HRAS wild-type to KD for KRAS)", "setting": "[2]; SPR", "value": "B (a compound having 3 or more and less than 10 is denoted as B)"}]}
{"compound": "CCCN1C(=O)CN(C)C(=O)CN(CC#N)C(=O)[C@H]([C@@H](C)CC)NC(=O)[C@H](CC(C)C)N(C)C(=O)C[C@@H](C(=O)N2CCOCC2)N(C)C(=O)[C@H](C2CCCC2)N(C)C(=O)C2(CCCC2)NC(=O)[C@@H]2CCCN2C(=O)[C@H](CCc2ccc(C(F)(F)F)c(Cl)c2)NC(=O)CN(C)C(=O)[C@@H]1Cc1ccc(C(F)(F)F)cc1", "note": "[PP0254] ([NMeL]I[X14][Sar][NPrPhe(4-CF3)][Sar][hPhe(3-Cl-4-CF3)]P[Ac5c][NMeGly(cPent)][NMeD]-Morpholide; lactam N-11)", "values": [{"measurement": "NRAS/KRAS (ratio of KD for GDP-bound NRAS wild-type to KD for KRAS)", "setting": "[1]; SPR", "value": "B (a compound having 3 or more and less than 10 is denoted as B)"}, {"measurement": "HRAS/KRAS (ratio of KD for GDP-bound HRAS wild-type to KD for KRAS)", "setting": "[2]; SPR", "value": "C (A compound having a KD ratio of 0.1 or more and less than 3 is denoted as C)"}]}
{"compound": "CCC(CC)[C@H]1C(=O)N(C)[C@H](C(=O)N(C)C)CC(=O)N(C)[C@@H](COC)C(=O)N[C@@H]([C@@H](C)CC)C(=O)N(C2CC2)CC(=O)N(C)[C@H]2C/C=C\\CCN(C2=O)[C@@H](Cc2ccc(C)cc2)C(=O)N(C)CC(=O)N[C@@H](CCc2cc(F)c(C(F)(F)F)c(F)c2)C(=O)N2C[C@H](OC3CCCC3)C[C@H]2C(=O)NC2(CC(C)(C)C2)C(=O)N1C", "note": "[PP2619]", "values": [{"measurement": "NRAS/KRAS (ratio of KD value with respect to GDP-bound NRAS wild-type protein to KD value with respect to KRAS)", "setting": "[1]; class symbols", "value": "AA (a compound having 20 or more is denoted as AA)"}, {"measurement": "HRAS/KRAS (ratio of KD value with respect to GDP-bound HRAS wild-type protein to KD value with respect to KRAS)", "setting": "[2]; class symbols", "value": "A (a compound having 10 or more and less than 20 is denoted as A)"}]}
